The values that follow come from article PMC10388362, “Fluorescent Ligands Enable Target Engagement Studies for the Intracellular Allosteric Binding Site of the Chemokine Receptor CXCR2” (Journal of Medicinal Chemistry, 2023).

The assay deals with T1, CXCR2 (Homo sapiens, UniProt P25025).
T1 construct: Promega pNLF1-C (Nluc) #CXCR20TN00; host or cells: HEK293T, transient transfection (PEI)
T1 sequence (P25025 1-360): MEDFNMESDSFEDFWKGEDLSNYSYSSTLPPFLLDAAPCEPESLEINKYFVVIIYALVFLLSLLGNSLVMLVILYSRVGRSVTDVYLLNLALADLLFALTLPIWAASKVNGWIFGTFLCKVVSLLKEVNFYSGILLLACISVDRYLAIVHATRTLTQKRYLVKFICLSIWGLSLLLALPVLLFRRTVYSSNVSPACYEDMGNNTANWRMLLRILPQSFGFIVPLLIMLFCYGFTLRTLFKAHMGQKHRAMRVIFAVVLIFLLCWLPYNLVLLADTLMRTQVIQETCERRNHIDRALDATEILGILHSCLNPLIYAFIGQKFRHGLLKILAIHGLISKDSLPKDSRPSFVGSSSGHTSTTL
The assay is described as follows: Membrane-based NanoBRET saturation assay (CXCR2_Nluc membranes). The format is binding. Conditions: cell-free, membranes from HEK293T cells transiently expressing CXCR2_Nluc; read-out: Kd (equilibrium saturation binding). As for the experimental part:
Membranes from HEK293T cells transiently expressing the respective GPCR were prepared as follows. The medium of the transfected cells was refreshed after 24 h before cells were harvested 48 h post-transfection. The growth medium was removed, and the cells were carefully washed with cold phosphate-buffered saline (10 mL per Ø 15 cm dish). The cells were detached with 15 mL of ice-cold Tris-EDTA buffer (10 mM Tris, 0.5 mM EDTA, 5.4 mM KCl, 140 mM NaCl, pH 7.4) and subsequently centrifuged with 218g for 8 min. The supernatant was removed and the cells were resuspended in 10 mL of Tris-EDTA buffer. The cells were lysed with an Ultraturrax (20,000 rpm) used five times for 5 s with a 25 s break on ice in between. The lysate was centrifuged at 50,830g for 18 min at 4 °C. The supernatant was discarded, and the pellet was homogenized in a membrane buffer (50 mM Tris, 1 mM EDTA, 5 mM MgCl2, 100 μg/mL bacitracin, 5 μg/mL soybean trypsin inhibitor, pH 7.4) with a glass-teflon homogenizer. Aliquots of 250 μL were shock-frozen in liquid nitrogen and directly stored at −80 °C. Finally, the protein concentration was determined using the Lowry method.[43]
For the establishment of our NanoBRET binding assay, we referred to a recently published protocol.[45] The fluorescent ligands (9a–c) were dissolved in DMSO (1 mM) and further diluted to varying concentrations in an assay buffer (50 mM Na2HPO4, 50 mM KH2PO4, pH 7.4, 1 mg/mL saponin, 5% FBS) and 5 μL of these dilutions were pipetted to a 384-well plate. To determine the total binding, 5 μL of the assay buffer was added to the corresponding wells, while 5 μL of a solution of 3 in the assay buffer (final assay concentration: 1 μM) was used to determine nonspecific binding. Then, 20 μL of the membrane preparations diluted in the assay buffer (2 μg total protein/well) were added and the plates were incubated for 90 min at 37 °C. Subsequently, 5 μL of a furimazine solution (Promega, Mannheim, Germany, final assay dilution: 1:5000) was added to each well (final assay volume: 35 μL) before measuring luminescence with a CLARIOstar microplate reader using 620/10 and 475/30 nm emission filters after 5 min of incubation in the dark. Bioluminescence resonance energy transfer (BRET) was determined as the ratio of acceptor fluorescence and donor luminescence. The algorithms for one-site saturation binding from PRISM9.5 (GraphPad) were utilized to analyze total, nonspecific, and specific binding. Specific binding signals were calculated as a difference of total and nonspecific binding. If required, netBRET values were calculated as the difference between total BRET values and the values obtained in the absence of a fluorescent ligand. For selectivity studies with CCR2, CCR7, CCR9, and CXCR1, we modified the procedure described above.
(In general: BRET reads energy transfer from a luciferase to a nearby fluorophore.)

With `Cc1ccc([C@H](Nc2c(Nc3cccc(C(=O)NCc4cn(CCOCCOCCOCCNC(=O)c5ccc(C(=O)[O-])c(-c6c7ccc(=[N+](C)C)cc-7oc7cc(N(C)C)ccc67)c5)nn4)c3O)c(=O)c2=O)C(C)(C)C)o1` [9a, (R)-4-((2-(2-(2-(2-(4-((3-((2-((2,2-Dimethyl-1-(5-methylfuran-2-yl)propyl)amino)-3,4-dioxocyclobut-1-en-1-yl)amino)-2-hydroxybenzamido)methyl)-1H-1,2,3-triazol-1-yl)ethoxy)ethoxy)ethoxy)ethyl)carbamoyl)-2-(6-(dimethylamino)-3-(dimethyliminio)-3H-xanthen-9-yl)benzoate], the Kd is 4.17 ± 0.8 nM.
